Earlier results as cited in US11224631B2, “Ready-to-use Carfilzomib compositions” (Orbicular Pharmaceutical Technologies Pvt. Ltd., priority 2017, dated 2022).

CC(C)C[C@H](NC(=O)[C@H](CCc1ccccc1)NC(=O)CN1CCOCC1)C(=O)N[C@@H](Cc1ccccc1)C(=O)N[C@@H](CC(C)C)C(=O)[C@@]1(C)CO1 [Carfilzomib]
Aqueous solubility: low aqueous solubility
